Reference: patent US20170305922A1, “CARM1 INHIBITORS AND USES THEREOF” (Epizyme, Inc., priority 2014, published 2017)

Key:
[1] = biological target: T1, Human CARM1 (PRMT4) (Homo sapiens, UniProt Q86X55); test: CARM1 enzyme assay on peptide substrates (3H-SAM Flashplate); conditions: Biochemical assay; CARM1 0.25 nM, 3H-SAM 30 nM, peptide 250 nM; read-out: Biochem IC50
T1 construct: Flag-CARM1-His was eluted with 200 ug/ml FLAG peptide in buffer A; made in house; host or cells: HEK 293F cells infected with recombinant baculovirus (pFastBacMam)
T1 sequence (Q86X55 1-585 isoform Q86X55-1): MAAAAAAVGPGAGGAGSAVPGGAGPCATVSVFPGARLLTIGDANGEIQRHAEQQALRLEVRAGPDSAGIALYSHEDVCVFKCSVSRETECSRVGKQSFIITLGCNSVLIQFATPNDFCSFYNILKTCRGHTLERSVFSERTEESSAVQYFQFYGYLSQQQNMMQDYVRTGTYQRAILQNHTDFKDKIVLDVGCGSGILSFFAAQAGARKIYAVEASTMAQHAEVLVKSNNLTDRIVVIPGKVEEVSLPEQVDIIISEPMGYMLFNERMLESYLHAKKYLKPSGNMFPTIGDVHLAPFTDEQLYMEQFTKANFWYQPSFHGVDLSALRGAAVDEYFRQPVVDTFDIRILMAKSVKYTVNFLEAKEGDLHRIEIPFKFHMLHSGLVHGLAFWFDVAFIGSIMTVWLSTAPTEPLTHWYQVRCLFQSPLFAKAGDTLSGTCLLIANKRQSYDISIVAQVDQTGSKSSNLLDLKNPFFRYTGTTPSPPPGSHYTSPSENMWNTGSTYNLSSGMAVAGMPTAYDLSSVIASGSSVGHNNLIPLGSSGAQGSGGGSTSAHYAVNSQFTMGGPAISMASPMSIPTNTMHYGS

[2] = tested on: asymmetric di-methyl PABP1 in RKO cells; test: RKO methylation assay: In Cell Western (ICW) for asymmetric di-methyl PABP1 (PABP1me2a); conditions: Homo sapiens, RKO, 48 h, Cellular-based (PABP1me2a) ICW (In Cell Western) assay
Outline: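 In-cell western on compound-exposed RKO cells (48 hours): asymmetric di-methyl PABP1 detected by antibody at 800 nm, DNA content by DRAQ5 at 700 nm. Percent inhibition from signal ratios against DMSO (minimum) and 20 μM reference compound (maximum) wells; IC50 curves fitted from triplicates.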

IC50 [1] [µM] | IC50 [2] [µM] | SMILES
0.0052 | 0.175 | CNC[C@@H](O)COc1ccc(Cl)c(-c2nc(-c3c(C)noc3C)c(C)c(N3Cc4ccncc4C3C)n2)c1 (stereo partly shown) [Example 124]
0.0065 | 0.15 | CNC[C@@H](O)COc1ccc(Cl)c(-c2nc(-c3c(C)noc3C)c(C)c(N3Cc4cnn(C5COC5)c4C3)n2)c1 [Example 125]
0.0062 | 0.157 | CNC[C@@H](O)COc1ccc(Cl)c(-c2nc(-c3c(C)noc3C)c(C)c(N3Cc4cn(C5COC5)nc4C3)n2)c1 [Example 126]
0.0078 | 0.032 | CNC[C@@H](O)COc1ccc(Cl)c(-c2nc(-c3c(C)noc3C)c(C)c(N3Cc4cnc(OCC(F)F)nc4C3)n2)c1 [Example 127]
0.0163 | 0.099 | CNC[C@@H](O)COc1ccc(Cl)c(-c2nc(-c3c(C)noc3C)c(C)c(N3CC4(CCC(OCCOC)CC4)C3)n2)c1 [Example 128]
0.0077 | 0.046 | CNC[C@@H](O)COc1ccc(Cl)c(-c2nc(-c3c(C)noc3C)c(C)c(N3Cc4cn(C)nc4C3)n2)c1 [Example 129]
0.0059 | 0.96 | CNC[C@@H](O)COc1ccc(Cl)c(-c2nc(-c3c(C)noc3C)c(C)c(N3C[C@H]4C[C@@H]3CN4C(=O)OC)n2)c1 [Example 130]
0.009 | 0.612 | CNC[C@@H](O)COc1ccc(Cl)c(-c2nc(-c3c(C)noc3C)c(C)c(N3C[C@H]4C[C@@H]3CN4CC(F)F)n2)c1 [Example 131]
0.0099 | 0.042 | CNC[C@@H](O)COc1ccc(Cl)c(-c2nc(-c3c(C)noc3C)c(C)c(N3CC4(CC(OC(C)C)C4)C3)n2)c1 [Example 133]
0.0085 | 0.045 | CNC[C@@H](O)COc1ccc(Cl)c(-c2nc(-c3c(C)noc3C)c(C)c(N3CC4(CC(OCC(F)F)C4)C3)n2)c1 [Example 134]
0.0046 | 0.093 | CNC[C@@H](O)COc1ccc(Cl)c(-c2nc(-c3c(C)noc3C)c(C)c(N3Cc4cnn(C5CCOCC5)c4C3)n2)c1 [Example 135]
0.0051 | 0.172 | CNC[C@@H](O)COc1ccc(Cl)c(-c2nc(-c3c(C)noc3C)c(C)c(N3Cc4cn(C5CCOCC5)nc4C3)n2)c1 [Example 136]
0.008 | 0.311 | CNC[C@@H](O)COc1ccc(Cl)c(-c2nc(-c3c(C)noc3C)c(C)c(N3C[C@@H]4C[C@H]3CN4CC(F)F)n2)c1 [Example 137]
0.0052 | 0.131 | CNC[C@@H](O)COc1ccc(Cl)c(-c2nc(-c3c(C)noc3C)c(C)c(-n3cc4c(n3)CN(C(=O)OC)C4)n2)c1 [Example 139]
0.0042 | 0.241 | CNC[C@@H](O)COc1ccc(Cl)c(-c2nc(-c3c(C)noc3C)c(C)c(N3CC4(CC(F)C4)C3)n2)c1 [Example 140]
0.0037 | 0.173 | CNC[C@@H](O)COc1ccc(Cl)c(-c2nc(-c3c(C)noc3C)c(C)c(N3CC4(CC(Cl)C4)C3)n2)c1 [Example 141]
0.0036 | 0.065 | CNC[C@@H](O)COc1ccc(Cl)c(-c2nc(-c3c(C)noc3C)c(C)c(N3Cc4cnc(C)cc4[C@@H]3C)n2)c1 [Example 142]
0.0028 | 0.015 | CNC[C@@H](O)COc1ccc(Cl)c(-c2nc(-c3c(C)noc3C)c(C)c(N3Cc4cnc(N5CC(F)(F)C5)nc4C3)n2)c1 [Example 143]
0.0033 | 0.022 | CNC[C@@H](O)COc1ccc(Cl)c(-c2nc(-c3c(C)noc3C)c(C)c(N3Cc4cnc(N5CCOCC5)nc4C3)n2)c1 [Example 144]
0.002 | 0.015 | CNC[C@@H](O)COc1ccc(Cl)c(-c2nc(-c3c(C)noc3C)c(C)c(N3Cc4cnc(N5CC(F)C5)nc4C3)n2)c1 [Example 145]
0.0027 | 0.026 | CNC[C@@H](O)COc1ccc(Cl)c(-c2nc(-c3c(C)c(Cl)nn3C)c(C)c(N3Cc4cnc(N5CC(F)(F)C5)nc4C3)n2)c1 [Example 146]
0.0028 | 0.016 | CNC[C@@H](O)COc1ccc(Cl)c(-c2nc(-c3c(C)noc3C)c(C)c(N3Cc4cnc(N5CC(OC)C5)nc4C3)n2)c1 [Example 147]
0.0031 | 0.052 | CNC[C@@H](O)COc1ccc(Cl)c(-c2nc(-c3c(C)noc3C)c(C)c(N3Cc4nc(C)oc4C3)n2)c1 [Example 149]
0.0162 | 2.02 | CNC[C@@H](O)COc1ccc(Cl)c(-c2nc(-c3c(C)noc3C)c(C)c(N3Cc4cccnc4C3)n2)c1Cl [Example 150]

IC50 [1] [µM] | IC50 [2] [µM] | SMILES
0.0121 | 0.668 | CNC[C@@H](O)COc1ccc(Cl)c(-c2nc(-c3c(C)noc3C)c(C)c(N3C[C@H]4C[C@@H]3CN4CC(F)(F)F)n2)c1 [Example 151]
0.0019 | 0.018 | CNC[C@@H](O)COc1ccc(Cl)c(-c2nc(-c3c(C)c(Cl)nn3C)c(C)c(N3Cc4cnc(OC)nc4C3)n2)c1 [Example 152]
0.0019 | 0.015 | CNC[C@@H](O)COc1ccc(Cl)c(-c2nc(-c3c(C)c(Cl)nn3C)c(C)c(N3Cc4cnc(N5CCC5)nc4C3)n2)c1 [Example 153]
0.0031 | 0.057 | CNC[C@@H](O)COc1ccc(Cl)c(-c2nc(-c3c(C)noc3C)c(C)c(N3Cc4ncnc(OCC(F)F)c4C3)n2)c1 [Example 154]
0.0024 | 0.018 | CCOc1ncc2c(n1)CN(c1nc(-c3cc(OC[C@H](O)CNC)ccc3Cl)nc(-c3c(C)c(Cl)nn3C)c1C)C2 [Example 155]
0.0035 | 0.031 | CNC[C@@H](O)COc1ccc(Cl)c(-c2nc(-c3c(C)c(Cl)nn3C)c(C)c(N3Cc4cnc(OCC(F)F)nc4C3)n2)c1 [Example 156]
0.0024 | 0.026 | CCN(C)c1ncc2c(n1)CN(c1nc(-c3cc(OC[C@H](O)CNC)ccc3Cl)nc(-c3c(C)noc3C)c1C)C2 [Example 157]
0.0029 | 0.018 | CNC[C@@H](O)COc1ccc(Cl)c(-c2nc(-c3c(C)noc3C)c(C)c(N3Cc4cnc(N(C)C)nc4C3)n2)c1 [Example 158]
0.002 | 0.039 | CCN(C)c1ncc2c(n1)CN(c1nc(-c3cc(OC[C@H](O)CNC)ccc3Cl)nc(-c3c(C)c(Cl)nn3C)c1C)C2 [Example 159]
0.0069 | 0.55 | CNC[C@@H](O)COc1ccc(Cl)c(-c2nc(-c3c(C)noc3C)c(C)c(N3CC4(CC(C(=O)N5CC(OC)C5)C4)C3)n2)c1 [Example 162]
0.0062 | 0.292 | CNC[C@@H](O)COc1ccc(Cl)c(-c2nc(-c3c(C)noc3C)c(C)c(N3CC4(CC(C(=O)N5CCC5)C4)C3)n2)c1 [Example 163]
0.0022 | 0.055 | CNC[C@@H](O)COc1ccc(Cl)c(-c2nc(-c3c(C)noc3C)c(C)c(N3Cc4nccc(C)c4C3)n2)c1 [Example 164]
0.0058 | 0.322 | CNC[C@@H](O)COc1ccc(Cl)c(-c2nc(-c3c(C)noc3C)c(C)c(N3CC4(CCC(C(=O)N5CCOCC5)CC4)C3)n2)c1 [Example 165]
0.0051 | 0.049 | CNC[C@@H](O)COc1ccc(Cl)c(-c2nc(-c3c(C)noc3C)c(C)c(N3Cc4cnc(OC5CCOCC5)nc4C3)n2)c1 [Example 166]
0.0019 | 0.019 | CNC[C@@H](O)COc1ccc(Cl)c(-c2nc(-c3c(C)noc3C)c(C)c(N3Cc4cnc(N5CCC5C)nc4C3)n2)c1 (stereo partly shown) [Example 167]
0.0025 | 0.026 | CNC[C@@H](O)COc1ccc(Cl)c(-c2nc(-c3c(C)c(Cl)nn3C)c(C)c(N3Cc4cnc(N(C)C)nc4C3)n2)c1 [Example 168]
0.0021 | 0.034 | CNC[C@@H](O)COc1ccc(Cl)c(-c2nc(-c3c(C)noc3C)c(C)c(N3Cc4cnc(OC)cc4C3)n2)c1 [Example 169]
0.0019 | 0.038 | CNC[C@@H](O)COc1ccc(Cl)c(-c2nc(-c3c(C)noc3C)c(C)c(N3Cc4ccc(OC)nc4C3)n2)c1 [Example 170]
0.0058 | 0.174 | CCc1onc(C)c1-c1nc(-c2cc(OC[C@H](O)CNC)ccc2Cl)nc(N2CC3(CC(OC)C3)C2)c1C [Example 171]
0.0047 | 0.057 | CNC[C@@H](O)COc1ccc(Cl)c(-c2nc(-c3c(C)noc3C)c(C)c(N3CC4(CCC(OCC(F)F)CC4)C3)n2)c1 [Example 172]
0.005 | 0.408 | CNC[C@@H](O)COc1ccc(Cl)c(-c2nc(-c3c(C)noc3C)c(C)c(N3CC4(CCC(C(=O)N5CC(OC)C5)CC4)C3)n2)c1 [Example 173]
0.0039 | 0.271 | CNC[C@@H](O)COc1ccc(Cl)c(-c2nc(-c3c(C)noc3C)c(C)c(N3CC4(CCC(C(=O)N5CCC5)CC4)C3)n2)c1 [Example 174]
0.0017 | 0.013 | CCc1onc(C)c1-c1nc(-c2cc(OC[C@H](O)CNC)ccc2Cl)nc(N2Cc3cnc(N4CCC4)nc3C2)c1C [Example 175]
